{
  "source": "patent US20220339257A1",
  "about": "“METHODS TO INCREASE THE SENSITIVITY AND REVERSING THE RESISTANCE TO DRUGS” (Biomarker Strategies, LLC, priority 2019, published 2022)",
  "format_in_all_cases": "cell-based",
  "key": {"[1]": {"tested_on": "clinical sample; HS2170 and Calu-6 cells", "assay": "HoPI assay (Hoechst 33342 and propidium iodide)", "details": "Osimertinib in combination with EM2", "description": "(§1) A double stain of Hoechst 33342 and propidium iodide allows for the determination of cell viability with high specificity and low background noise, as compared to trypan blue staining. Hoechst 33342 is a cell permeable blue fluorescent nuclear stain which will stain all cell types. Propidium iodide is a cell impermeable red fluorescent nuclear stain that will only bind to the nuclei of cells with compromised membranes (dead cells). The staining can be performed rapidly on live cell suspensions within 15 minutes. 25 uL of 4× Hoechst 33342 Solution (40 ug/mL) and 25 uL of 4×Propidium Iodide Solution are added to 50 uL of cell suspension. The suspension was gently mixed 10 times and 50 uL was immediately transferred to a microfluidic cell counting chip. A 365 nm LED was used to excite both Hoechst 33342 and propidium iodide. Images of the cells were captured using a 10× objective lens on an Olympus microscope using a Canon EOS 6D camera using an ISO of 800 and an exposure of 2 seconds; both JPEG and RAW images were saved for analysis. The blue channel was used to measure the total number of cells and the red channel was used to measure the number of dead cells. Cell counting was performed automatically by the Image Pro software (Media Cybernetics, Inc)."}, "EGFR WT sample (H1581)": {"tested_on": "EGFR WT sample (H1581)", "assay": "Immunocytochemistry biomarker staining", "details": "erlotinib+EM2 combination; WT EGFR smoker samples; 72 hours", "procedure": "(§2) Cells at the seeding density of 10,000 cells per well were plated in 8 chamber slides in complete RPMI culture medium for overnight. After 24h cells were treated with RPMI media without the serum along with selected dose of erlotinib+EM2 and kept for additional 72 hours in incubation condition set at 37° C. in a humidified atmosphere of 95% air and 5% CO2. The chamber slides were rinsed with PBS before performing ICC staining. An Ambay kit (Catalog #10011A) purchased from Ambay Immune Sensors and Controls, LLC (AISC) (MD, USA) was used to perform ICC staining as per the kit instructions and using poly-HRP from Biogenix (CA, USA) was used to enable signal amplification and detection of specific bound antibody targets. A respective isotype antibody control was be kept for each biomarker. Counterstaining was performed before mounting and analysis."}, "RPMI-1975": {"tested_on": "RPMI-1975", "assay": "HoPI live cell staining", "details": "24 hours", "description": "as §1\nMTA and EM effects on apoptosis were measured by Hoechst-Propidium Iodide staining (HoPI). For the assay, cells were seeded in 6-well plates at 400K cells per well, in 2 mL of 10% FBS-containing media and incubated for 24 hours. At 24 hours, a 1 nM to […] range of MTA and/or 1 ng/mL to 1 mg/mL range of EM doses was added and incubated for 24 hours. After 24 hours incubation respective cells' media was collected, added the 1× HBSS wash from the plate in the respective tube. Adherent cells were detached by treating with Accutase for 6 minutes and collected in respective tubes. All samples were centrifuged for 5 minutes at 1200 RPM. […] The area, mean intensity, standard deviation of the mean intensity, minimum intensity, maximum intensity and perimeter were measured for each cellular region in the red channel and also in the blue channel. […]"}, "[2]": {"tested_on": "clinical sample (WT EGFR tumor, patient who smoked)", "assay": "Immunocytochemistry biomarker staining of a clinical sample", "details": "erlotinib+EM2 combination", "procedure": "as §2"}},
  "data": [
    {"substance": "tumor necrosis factor-alpha [EM2]", "values": [
      {"measurement": "cell death (HoPI assay)", "setting": "[1]", "value": "increase in cell death"},
      {"measurement": "cell apoptosis (changes in nuclear staining of Bcl2, ICC)", "setting": "EGFR WT sample (H1581)", "value": "promoted cell apoptosis"},
      {"measurement": "reduction in live cells (HoPI)", "setting": "RPMI-1975; GSK458 and TNFa in combination", "value": 68, "unit": "%"},
      {"measurement": "reduction in live cells (HoPI)", "setting": "RPMI-1975; single agent", "value": 8, "unit": "%"},
      {"measurement": "cell apoptosis (nuclear staining of Bcl2, nuclear vacuolization)", "setting": "[2]", "value": "promoted cell apoptosis"}
    ]}
  ]
}
